Where “and” joins values, the source holds several entries; their conditions need not be identical. Equal entries are not always repeated.
What was measured:
HIV-1 Y181C = test: Anti-HIV-1 activity against mutant strain Y181C in MT-4 cells; type: cell-based; settings: Human immunodeficiency virus 1, MT4, read-out: EC50 Y181C
[1] = Plasma protein binding, dialysis equilibrium method, rat
HIV-1 F227L + V106A = test: Anti-HIV-1 activity against double mutant F227L + V106A in MT-4 cells; type: cell-based; settings: Human immunodeficiency virus 1, MT4, read-out: EC50 F227L + V106A
[2] = Kinetic aqueous solubility; settings: kinetic from dmso stock
[3] = In vivo pharmacokinetics in SD rats; settings: rat, plasma
[4] = system: HIV-1 RES056 (K103N/Y181C); test: Anti-HIV-1 activity against double mutant RES056 in MT-4 cells; type: cell-based; settings: Human immunodeficiency virus 1, MT4, read-out: EC50 RES056
HIV-1 K103N = test: Anti-HIV-1 activity against mutant strain K103N in MT-4 cells; type: cell-based; settings: Human immunodeficiency virus 1, MT4, read-out: EC50 K103N
CYP2C19 = CYP2C19 (Homo sapiens, UniProt P33261); test: Cytochrome P450 inhibition, CYP2C19; type: in vitro ADME
CYP3A4M = CYP3A4M (Homo sapiens, UniProt P08684)
CYP2C9 = CYP2C9 (Homo sapiens, UniProt P11712); test: Cytochrome P450 inhibition, CYP2C9; type: in vitro ADME
HIV-1 E138K = test: Anti-HIV-1 activity against mutant strain E138K in MT-4 cells; type: cell-based; settings: Human immunodeficiency virus 1, MT4, read-out: EC50 E138K
[5] = Plasma protein binding, dialysis equilibrium method, human
WT HIV-1 RT = WT HIV-1 RT (Human immunodeficiency virus type 1 group M subtype B, UniProt P03366); test: HIV-1 RT inhibition assay; type: biochemical
HIV-1 L100I = test: Anti-HIV-1 activity against mutant strain L100I in MT-4 cells; type: cell-based; settings: Human immunodeficiency virus 1, MT4, read-out: EC50 L100I
CYP1A2 = biological target: T1, CYP1A2 (Homo sapiens, UniProt P05177); test: biochemical
T1 sequence (P05177 1-516): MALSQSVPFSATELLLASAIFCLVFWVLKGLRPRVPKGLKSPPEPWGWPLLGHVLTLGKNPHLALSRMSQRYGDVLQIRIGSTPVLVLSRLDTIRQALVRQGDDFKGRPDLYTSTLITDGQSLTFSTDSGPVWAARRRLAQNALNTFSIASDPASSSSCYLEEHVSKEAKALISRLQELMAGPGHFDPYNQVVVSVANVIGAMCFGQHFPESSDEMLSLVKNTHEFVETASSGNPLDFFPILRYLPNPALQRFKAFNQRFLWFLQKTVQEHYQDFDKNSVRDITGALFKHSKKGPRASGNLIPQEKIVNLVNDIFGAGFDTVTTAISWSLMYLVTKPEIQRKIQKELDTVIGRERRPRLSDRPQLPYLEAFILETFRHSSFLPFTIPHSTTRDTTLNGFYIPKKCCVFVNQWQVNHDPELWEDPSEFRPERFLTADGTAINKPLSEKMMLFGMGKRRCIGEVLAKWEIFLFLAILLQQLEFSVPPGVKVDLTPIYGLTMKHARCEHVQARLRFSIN

HIV-1 Y188L = test: Anti-HIV-1 activity against mutant strain Y188L in MT-4 cells; type: cell-based; settings: Human immunodeficiency virus 1, MT4, read-out: EC50 Y188L
CYP2D6 = CYP2D6 (Homo sapiens, UniProt P10635); test: biochemical
HIV-2 (ROD) = test: Anti-HIV activity in MT-4 cells; type: cell-based; settings: Human immunodeficiency virus 2, MT4, read-out: EC50 ROD
HIV-1 RT RNase H = HIV-1 RT RNase H (Human immunodeficiency virus type 1 group M subtype B, UniProt P03366); test: HIV-1 RT RNase H inhibition; type: biochemical
[6] = Cytotoxicity in uninfected MT-4 cells; type: cell-based; settings: human, uninfected MT-4 cells

CYP2C19, sequence (P33261 whole entry): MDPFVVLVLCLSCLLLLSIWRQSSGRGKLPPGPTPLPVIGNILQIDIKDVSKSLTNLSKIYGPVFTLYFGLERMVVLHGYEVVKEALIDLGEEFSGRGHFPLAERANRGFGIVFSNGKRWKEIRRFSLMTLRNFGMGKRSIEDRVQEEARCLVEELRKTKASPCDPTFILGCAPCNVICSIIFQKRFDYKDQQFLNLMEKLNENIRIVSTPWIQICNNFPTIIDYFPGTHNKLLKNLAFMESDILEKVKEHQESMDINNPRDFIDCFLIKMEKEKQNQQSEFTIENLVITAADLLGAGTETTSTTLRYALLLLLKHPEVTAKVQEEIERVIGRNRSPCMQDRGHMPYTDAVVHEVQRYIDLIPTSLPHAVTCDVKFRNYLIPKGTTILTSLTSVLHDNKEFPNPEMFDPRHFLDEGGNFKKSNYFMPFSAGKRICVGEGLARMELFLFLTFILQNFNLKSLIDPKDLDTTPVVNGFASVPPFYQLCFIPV
CYP2C9, sequence (P11712 whole entry): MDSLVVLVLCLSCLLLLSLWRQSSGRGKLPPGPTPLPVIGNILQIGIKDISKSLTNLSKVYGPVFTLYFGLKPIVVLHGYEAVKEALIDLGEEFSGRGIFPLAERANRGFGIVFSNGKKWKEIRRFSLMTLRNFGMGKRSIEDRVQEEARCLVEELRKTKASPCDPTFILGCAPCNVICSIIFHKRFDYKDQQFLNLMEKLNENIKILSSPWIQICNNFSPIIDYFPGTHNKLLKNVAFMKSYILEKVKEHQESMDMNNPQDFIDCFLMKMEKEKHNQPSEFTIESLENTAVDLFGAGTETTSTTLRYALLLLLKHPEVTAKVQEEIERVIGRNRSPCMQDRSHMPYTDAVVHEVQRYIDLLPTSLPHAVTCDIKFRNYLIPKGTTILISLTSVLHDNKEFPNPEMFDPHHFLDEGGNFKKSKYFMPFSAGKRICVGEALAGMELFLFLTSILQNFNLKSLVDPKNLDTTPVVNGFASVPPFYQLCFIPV
CYP2D6, sequence (P10635 whole entry): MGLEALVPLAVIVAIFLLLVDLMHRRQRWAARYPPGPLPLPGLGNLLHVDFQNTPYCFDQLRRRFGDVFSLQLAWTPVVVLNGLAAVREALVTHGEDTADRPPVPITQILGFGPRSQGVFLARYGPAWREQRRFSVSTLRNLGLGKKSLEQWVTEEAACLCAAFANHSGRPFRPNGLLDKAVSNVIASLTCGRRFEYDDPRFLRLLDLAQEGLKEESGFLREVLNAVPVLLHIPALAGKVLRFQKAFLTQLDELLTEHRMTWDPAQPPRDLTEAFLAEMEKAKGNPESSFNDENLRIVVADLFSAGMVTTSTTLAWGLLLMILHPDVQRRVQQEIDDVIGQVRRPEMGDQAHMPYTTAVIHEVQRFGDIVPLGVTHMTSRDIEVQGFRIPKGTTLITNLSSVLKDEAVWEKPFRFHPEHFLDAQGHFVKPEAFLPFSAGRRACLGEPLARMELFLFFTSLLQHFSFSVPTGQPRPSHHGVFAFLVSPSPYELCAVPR
CYP3A4M, sequence (P08684 whole entry): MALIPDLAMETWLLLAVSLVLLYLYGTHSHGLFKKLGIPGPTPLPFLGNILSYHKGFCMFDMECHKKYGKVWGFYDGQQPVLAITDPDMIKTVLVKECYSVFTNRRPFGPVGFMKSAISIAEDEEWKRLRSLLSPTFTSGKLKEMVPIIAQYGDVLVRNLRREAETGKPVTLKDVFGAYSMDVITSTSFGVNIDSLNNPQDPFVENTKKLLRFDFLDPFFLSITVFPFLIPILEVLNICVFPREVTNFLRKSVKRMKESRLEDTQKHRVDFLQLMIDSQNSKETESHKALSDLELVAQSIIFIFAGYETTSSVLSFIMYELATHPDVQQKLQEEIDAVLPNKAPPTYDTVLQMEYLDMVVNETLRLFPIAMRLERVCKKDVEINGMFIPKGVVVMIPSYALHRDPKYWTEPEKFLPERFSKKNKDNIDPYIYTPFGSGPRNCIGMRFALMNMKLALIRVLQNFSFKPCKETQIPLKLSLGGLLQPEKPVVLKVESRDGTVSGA

## Cc1cc(-c2ccc(C#N)cc2)cc(C)c1Oc1nc(NCCN2CCOCC2)nc(Nc2ccc(C#N)cc2)n1 [Compound 5j, 4ʹ-((4-((4-Cyanophenyl)amino)-6-((2-morpholinoethyl)amino)-1,3,5-triazin-2-yl)-oxy)-3ʹ,5ʹ-dimethyl-[1,1ʹ-biphenyl]-4-carbonitrile]
HIV-1 Y181C
  EC50: 0.013 ± 0.002 µM
[1]
  recovery at 2 μmol/L: 99.5%
HIV-1 F227L + V106A
  EC50: 0.017 ± 0.004 µM
[2]; FaSSIF
  solubility kinetic: 41.6 µg/mL and 76.2 µM
[2]; aqueous solution at pH 2.0, pH 2, aqueous buffer
  solubility kinetic: 6.58 µg/mL and 12.1 µM
[2]; aqueous solution at pH 7.0, pH 7, aqueous buffer
  solubility kinetic: < 0.853 µg/mL and < 1.56 µM
[2]; aqueous solution at pH 7.4, pH 7.4, aqueous buffer
  solubility kinetic: < 0.853 µg/mL and < 1.56 µM
[3]; iv, 1 mg/kg
  AUC(0-inf): 6660 ± 809 ng·h/mL
  AUC(0-t): 6650 ± 795 ng·h/mL
  clearance: 5.06 ± 0.658 mL/min/kg
  half-life: 0.734 ± 0.174 h
[3]; po, 20 mg/kg
  AUC(0-t): 322 ± 176 ng·h/mL
  Cmax: 43.2 ± 39.8 ng/mL
  Tmax: 13.3 ± 9.24 h
  bioavailability: 0.485%
[4]
  EC50: 0.034 ± 0.004 µM
HIV-1 K103N
  EC50: 0.003 ± 0.001 µM
CYP2C19
  IC50: > 50 µM
CYP3A4M
  IC50: > 50 µM
CYP2C9
  IC50: 32.9 µM
HIV-1 E138K
  EC50: 0.0064 ± 0.0001 µM
[5]
  recovery at 2 μmol/L: 84.9%
WT HIV-1 RT
  IC50: 0.176 µM
HIV-1 L100I
  EC50: 0.012 ± 0.002 µM
CYP1A2
  IC50: > 50 µM
HIV-1 Y188L
  EC50: 0.017 ± 0.003 µM
CYP2D6
  IC50: > 50 µM
HIV-2 (ROD)
  EC50: 0.05 ± 0.001 µM
HIV-1 RT RNase H
  IC50: > 1100 µM
[6]
  CC50 at 4 days: 1.08 ± 0.09 µM

Reference: PMC7016291 (Acta Pharmaceutica Sinica. B, 2019)
